SMILES strings stand for the structures.

The text below walks through data of patent US20250206751A1, “HETEROCYCLIC COMPOUND FOR INDUCING DEGRADATION OF G12D MUTANT KRAS PROTEIN” (Astellas Pharma Inc., priority 2022, published 2025).

One assay has as its target T1, KRAS G12D protein (Homo sapiens, UniProt P01116, G12D).
T1 construct: host or cells: AsPC-1
The assay can be described thus: KRAS degradation activity by Cell ELISA in AsPC-1 (Test Example 1). The assay is classed as cell-based. Particulars: AsPC-1 cells, cultured overnight with compound, corrected with β-actin, read-out: DC50 (50% degradation concentration of the amounts of KRAS). As to the method: Test Example 1: Evaluation of KRAS Degradation Activity on Human G12D Mutant KRAS-Positive Pancreatic Cancer Line AsPC-1 (CRL-1682; ATCC)
The KRAS degradation activity of test compounds was evaluated by measuring the expression levels of KRAS G12D protein by Cell ELISA.
AsPC-1 cells were seeded at 20 μL per well on 384-well plates (from Greiner bio-one) to give 2.0×10^4 cells per well. As for the cell culture conditions, RPMI 1640 (from Sigma-Aldrich) medium containing 10% fetal bovine serum (from Cytiva) was used in the presence of 5% CO2 at 37° C.
The next day, the test compounds (10 points having final concentrations in the range of 10 μM to 0.3 nM) and DMSO (from FUJIFILM Wako Pure Chemical Corporation), which was the solvent for the test compounds, as a negative control were diluted 500-fold with a fresh medium and were added at 20 μL per well. The cells were cultured overnight.
The next day, the culture supernatant was removed, and 4% paraformaldehyde phosphate buffer (from FUJIFILM Wako Pure Chemical Corporation) was added at 20 μL per well. The plates were allowed to stand for 30 minutes at room temperature to thus immobilize the cells. Then, the supernatant was removed, and 0.1% Triton X-100 (from Amersham Biosciences)-containing Phosphate buffered saline (PBS; from FUJIFILM Wako Pure Chemical Corporation) was added at 20 μL per well. After allowing to stand for 10 minutes at room temperature, the supernatant was removed. PBS was added at 25 μL per well, and the supernatant was removed to thus wash each well. The washing was performed twice in total. Next, the supernatant was removed, and 0.5% sodium dodecyl sulfate (SDS; from Invitrogen)-containing PBS was added at 20 μL per well. After allowing to stand at room temperature for 10 minutes, the supernatant was removed by a centrifugal operation (using a centrifugal dehydrator machine, the supernatant was removed by the same method hereinafter). PBS was added at 25 μL per well, and the supernatant was removed to thus wash each well. The washing was performed twice in total. The supernatant was removed, and blocking solution (Intercept Blocking Buffer; from Li-COR Biosciences) was added at 20 μL per well. After allowing to stand for 30 minutes at room temperature, the supernatant was removed, and a solution obtained by diluting anti-β-actin antibody (Anti-beta Actin antibody [mAbcam 8226]-Loading Control; from abcam) 1,000-fold with blocking solution and a solution obtained by diluting anti-Ras (G12D Mutant Specific) antibody (Ras (G12D Mutant Specific) (D8H7) Rabbit mAb #14429; from Cell Signaling Technology) and anti-β-actin antibody (from abcam) 1,000-fold with blocking solution were respectively added to positive control wells and the other wells at 20 μL per well as a primary antibody. The plate was allowed to stand overnight at 4° C.
The next day, the supernatant was removed. PBS was added at 25 μL per well, and the supernatant was removed to thus wash each well. The washing was performed twice in total. The supernatant was removed, and a solution obtained by diluting Donkey anti-Mouse IgG H&L (IRDye 680RD) (from Li-COR Biosciences) and Goat anti-Rabbit IgG H&L (IRDye 800CW) (from Li-COR Biosciences) 1,000-fold with blocking solution was added at 20 μL per well as a secondary antibody. After allowing to stand for 1 hour at room temperature, the supernatant was removed. PBS was added at 25 μL per well, and the supernatant was removed to thus wash each well. The washing was performed twice in total. After removing the supernatant, the plate was dried with air at room temperature for 2 hours or more, and the 700 nm and 800 nm fluorescent signals were measured with Aerius (from Li-COR Biosciences). […]

In assay [1] the test system is phosphorylation of threonine 202 (Thr202) and tyrosine 204 (Tyr204) of ERK. The assay can be described thus: ERK phosphorylation inhibitory effect by Cell ELISA in AsPC-1 (Test Example 2). The assay is classed as cell-based, human. As to conditions: Homo sapiens, ASPC1, AsPC-1 cells, cultured overnight with compound; 1 μM trametinib taken as 0%. The method, then: Test Example 2: Evaluation of ERK Phosphorylation Inhibitory Effect on Human G12D Mutant KRAS-Positive Pancreatic Cancer Line AsPC-1
The ERK phosphorylation inhibitory effect of test compounds was evaluated by measuring phosphorylation of threonine 202 (Thr202) and tyrosine 204 (Tyr204) of ERK located downstream of the KRAS signal by Cell ELISA.
AsPC-1 cells were seeded on 384-well plates at 36 μL/well to give 2.0×10^4 cells per well. As for the cell culture conditions, RPMI 1640 medium containing 10% fetal bovine serum was used in the presence of 5% CO2 at 37° C.
The next day, the test compounds (10 points having final concentrations in the range of 10 μM to 0.3 nM), trametinib (MEK inhibitor) of a final concentration of 1 μM as positive control and DMSO, which was the solvent for the test compounds, as negative control were diluted 100-fold with a fresh medium and were added at 4 μL per well. The cells were cultured overnight. After culturing, 30% glyoxal solution (40% glyoxal [from Nacalai Tesque] was diluted with PBS) was quickly added at 30 μL per well, and the plate was allowed to stand for 60 minutes at room temperature to thus immobilize the cells. Then, the plate was centrifuged to remove the supernatant (using a centrifugal dehydrator machine, the supernatant was removed by the same method hereinafter), and 0.1% Triton X-100-containing PBS was added at 20 μL per well. After allowing to stand for 10 minutes at room temperature, the supernatant was removed, and the same operation was further repeated. Next, 0.5% SDS-containing PBS was added at 20 μL per well, and after allowing to stand at room temperature for 30 minutes, the supernatant was removed. Subsequently, blocking solution (Intercept Blocking Buffer) was added at 20 μL per well, and the plate was allowed to stand for 1 hour at room temperature. The supernatant was removed, and an ERK (Thr202/Tyr204) phosphorylation antibody (Phospho-p44/42 MAPK (Erk 1/2) (Thr202/Tyr204) (D13.14.4E) XP Rabbit mAb; from Cell Signaling Technology) diluted 2,500-fold with blocking solution was added at 15 μL per well as a primary antibody. The plates were allowed to stand at 4° C. overnight.
The next day, the supernatant was removed. 0.05% Tween-20 (from Thermo Fisher Scientific)-containing PBS was added at 50 μL per well, and the supernatant was removed to thus wash each well. The washing was performed three times in total. After washing, Goat anti-Rabbit IgG H&L (IRDye 800CW) diluted 1,000-fold with blocking solution was added at 15 μL per well as a secondary antibody, and the plates were allowed to stand for 1 hour at room temperature. The supernatant was removed, and each well was washed three times with 0.05% Tween-20-containing PBS in the same manner as after the primary antibody reaction. After removing the supernatant, the plates were dried with air at room temperature for 3 hours or more, and the 800-nm fluorescent signals were measured with Aerius.
With the signaling value at the time of addition of DMSO taken as 100% and with the signaling value at the time of addition of 1 μM trametinib taken as 0%, the 50% inhibitory concentration values (IC50) were calculated by Sigmoid-Emax nonlinear regression analysis.
(In general: ELISA stands for enzyme-linked immunosorbent assay.)

The subject of assay [2] is human G12D mutant KRAS-positive pancreatic cancer line AsPC-1. The assay can be described thus: Non-anchorage-dependent cell growth inhibition, spheroid 3D cell culture (Test Example 3). The assay is classed as cell-based. As to conditions: Homo sapiens, ASPC1, 144 h, AsPC-1 spheroid 3D culture, 6 days, CellTiter Glo 2.0. As to the method: Test Example 3: Evaluation of Non-Anchorage-Dependent Cell Growth Inhibitory Effect on Human G12D Mutant KRAS-Positive Pancreatic Cancer Line AsPC-1
The non-anchorage-dependent cell growth inhibitory effect of test compounds was evaluated by spheroid 3D cell culture.
AsPC-1 cells were seeded on low-cell-adhesive round bottom 384-well plates (PrimeSurface: from Sumitomo Bakelite) at 36 μL/well to give 5×10^2 cells per well. As for the cell culture conditions, RPMI 1640 medium containing 10% fetal bovine serum was used in the presence of 5% CO2 at 37° C.
The next day, the test compounds (10 or 6 points having final concentrations in the range of 10 μM to 0.3 nM) and DMSO, which was the solvent for the test compounds, as a negative control were diluted 100-fold with a fresh medium and were added at 4 μL per well. After culturing in the presence of 5% CO2 at 37° C. for 6 days, CellTiter Glo 2.0 (from Promega) was added at 20 μL per well. After stirring with a plate mixer (from FINEPCR) at room temperature for 1 hour, the luminescent signals were measured with ARVO X3 (from PerkinElmer).
With the signaling value in treatment with DMSO taken as 100% and with the signaling value in the medium alone without cells taken as 0%, the 50% inhibitory concentration values (IC50) were calculated by Sigmoid-Emax nonlinear regression analysis.

T1 sequence (P01116 1-188 isoform P01116-2 G12D): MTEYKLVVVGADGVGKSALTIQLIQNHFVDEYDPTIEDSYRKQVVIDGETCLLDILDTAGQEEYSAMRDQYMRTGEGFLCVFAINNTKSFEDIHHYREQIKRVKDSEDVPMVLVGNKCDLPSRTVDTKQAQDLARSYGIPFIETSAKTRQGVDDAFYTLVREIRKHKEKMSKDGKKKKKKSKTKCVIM

What is called IC50 is the concentration needed to halve the response being measured. Consider `CCn1nccc1-c1ccc([C@H](CO)NC(=O)[C@@H]2C[C@@H](O)CN2C(=O)[C@H](C(C)C)n2cc(-c3ccc(COc4c(-c5c(C)c(F)cc6[nH]ncc56)c(C5CC5)cc5c(N(C)[C@H]6CCNC6)nc(OC[C@@H]6CCCO6)nc45)cc3)nn2)cc1` (atropisomer, axis not shown) [Example 26], for which the DC50 at KRAS G12D protein came to 22 nM. The IC50 in assay [1] turned out to be 2 nM; in assay [2], 3 nM.

For `Cc1c(F)cc2[nH]ncc2c1-c1c(C2CC2)cc2c(N(C)[C@H]3CCNC3)cc(OC[C@@H]3CCCO3)nc2c1OCc1ccc(-c2cn([C@H](C(=O)N3C[C@H](O)C[C@H]3C(=O)N[C@@H](CO)c3ccc(-n4ccnc4C)cc3)C(C)C)nn2)cc1` (atropisomer, axis not shown) [Example 27], at KRAS G12D protein, the DC50 stood at 68 nM. Moreover, the IC50 in assay [1] and in assay [2] was 7 nM throughout.

Regarding `Cc1ncoc1-c1ccc([C@H](CO)NC(=O)[C@@H]2C[C@@H](O)CN2C(=O)[C@H](C(C)C)n2cc(-c3ccc(COc4c(-c5c(C)c(F)cc6[nH]ncc56)c(C5CC5)cc5c(N(C)[C@H]6CCNC6)nc(OC[C@@H]6CCCO6)nc45)cc3)nn2)cc1` (atropisomer, axis not shown) [Example 28], at KRAS G12D protein, the DC50 amounted to 47 nM. Besides, the IC50 in assay [1] and in assay [2] was 5 nM in each case.

As for `CCn1nccc1-c1ccc([C@H](CO)NC(=O)[C@@H]2C[C@@H](O)CN2C(=O)[C@H](C(C)C)n2cc(-c3ccc(COc4c(-c5c(C)c(F)cc6[nH]ncc56)c(C5CC5)cc5c(N(C)[C@H]6CCNC6)nc(OC[C@H]6CCCO6)nc45)cc3)nn2)cc1` (atropisomer, axis not shown) [Example 29], on KRAS G12D protein, the DC50 stood at 20 nM. Moreover, the results for the half-maximal inhibitory concentration (IC50) in assay [1] and in assay [2] were 6 nM and 7 nM, respectively.

In the case of `Cc1c(F)cc2[nH]ncc2c1-c1c(C2CC2)cc2c(N(C)[C@H]3CCNC3)nc(OC[C@H]3CCCO3)nc2c1OCc1ccc(-c2cn([C@H](C(=O)N3C[C@H](O)C[C@H]3C(=O)N[C@@H](CO)c3ccc(-n4ccnc4C)cc3)C(C)C)nn2)cc1` (atropisomer, axis not shown) [Example 30], the DC50 on KRAS G12D protein turned out to be 121 nM. Besides, the half-maximal inhibitory concentration (IC50) is 10 nM in assay [1] and 12 nM in assay [2].

Consider `Cc1ncoc1-c1ccc([C@H](CO)NC(=O)[C@@H]2C[C@@H](O)CN2C(=O)[C@H](C(C)C)n2cc(-c3ccc(COc4c(-c5c(C)c(F)cc6[nH]ncc56)c(C5CC5)cc5c(N(C)[C@H]6CCNC6)nc(OC[C@H]6CCCO6)nc45)cc3)nn2)cc1` (atropisomer, axis not shown) [Example 31], for which, at KRAS G12D protein, the DC50 worked out at 59 nM. Also, the IC50 in assay [1] stood at 20 nM; in assay [2], 18 nM.

Turning to `CCn1nccc1-c1ccc([C@H](CO)NC(=O)[C@@H]2C[C@@H](O)CN2C(=O)[C@H](C(C)C)n2cc(-c3ccc(COc4c(-c5c(C)c(F)cc6[nH]ncc56)c(C5CC5)cc5c(N(C)[C@H]6CCNC6)nc(OC[C@H]6CCCO6)nc45)cc3)nn2)nc1` (atropisomer, axis not shown) [Example 32], the DC50 on KRAS G12D protein is 51 nM. In addition, the IC50 was 37 nM in assay [1] and 24 nM in assay [2].

As to `Cc1ncsc1-c1ccc([C@H](CO)NC(=O)[C@@H]2C[C@@H](O)CN2C(=O)[C@H](C(C)C)n2cc(-c3ccc(COc4c(-c5c(C)c(F)cc6[nH]ncc56)c(C5CC5)cc5c(N(C)[C@H]6CCNC6)nc(OCC(C)(C)F)nc45)cc3)nn2)cc1` (atropisomer, axis not shown) [Example 33], the DC50 at KRAS G12D protein was 33 nM. For the same molecule, the figures for the IC50 in assay [1] and in assay [2] were 45 nM and 24 nM, respectively.

With `Cc1ncsc1-c1ccc([C@H](CO)NC(=O)[C@@H]2C[C@@H](O)CN2C(=O)[C@H](C(C)C)n2cc(-c3ccc(COc4c(-c5c(C)c(F)cc6[nH]ncc56)c(C5CC5)cc5c(N(C)[C@H]6CCNC6)nc(OCC(C)C)nc45)cc3)nn2)cc1` (atropisomer, axis not shown) [Example 34], at KRAS G12D protein, the DC50 was 53 nM. Further, the IC50 in assay [1] amounted to 21 nM; in assay [2] it was 13 nM.

As for `Cc1ncsc1-c1ccc([C@H](CO)NC(=O)[C@@H]2C[C@@H](O)CN2C(=O)[C@H](C(C)C)n2cc(-c3ccc(COc4c(-c5c(C)c(F)cc6[nH]ncc56)c(C5CC5)cc5c(N(C)[C@H]6CCNC6)nc(OC[C@H](C)F)nc45)cc3)nn2)cc1` (atropisomer, axis not shown) [Example 35], on KRAS G12D protein, the DC50 stood at 63 nM. Besides, the values for the IC50 in assay [1] and in assay [2] were 12 nM and 9 nM, respectively.
